Measured values as given in patent publication US8598339B2, “Withanolide isolated from Physalis longifolia and analogs and methods of use thereof” (University of Kansas, priority 2011, dated 2013).

Columns and labels:
Type in all cases: cell-based
SUP-B15 Ph+ ALL cells = test: MTS assay, SUP-B15; settings: for IC50: Homo sapiens, SUP-B15
Procedure: (§1) Cell proliferation was analyzed using MTS assay and Trypan Blue exclusion. Annexin V-FITC/Propidium Iodide flow cytometry was used to analyze the induction of apoptosis in SUP-B15 cells after treatment with anolides. Cell cycle analysis was performed using propidium iodide flow cytometry. Modulation of BCR-ABL and downstream effector proteins was determined by western blot analysis. Syngery between withanolides and TKIs was evaluated using MTS viability to calculate combination indices. Apoptotic synergy was evaluated using Annexin V/PI.

normal MRC-5 fibroblasts = test: MTS assay, normal MRC-5 fibroblasts (Example 7); settings: Homo sapiens, MRC5
Procedure: as §1

SUP-B15 Ph+ALL cells = test: Combination with imatinib, MTS viability, SUP-B15; settings: 16 combinations
Procedure: as §1

[1] = tested on: squamous cell carcinoma of head and neck cells MDA1986; test: MTS cell viability assay, MDA1986; settings: Table 1, 72-hour treatment
Procedure, shortened: (§2)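 JMAR and MDA1986 head and neck SCC cells and B16F10 melanoma cells grown in DMEM with 10% heat-inactivated FBS at 37 °C, 5% CO2, seeded at 1-2×10^4 cells/mL. Viability measured by MTS after 72-hour compound treatment, 3-hour reagent incubation, formazan absorbance at 490 nm.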

SUP-B15 cells [2] = test: Annexin V/propidium iodide apoptosis, SUP-B15; settings: 48 hour; approximately 10×IC50 (Withaferin A, X001), 4×IC50 (X003)
Procedure: as §1
At no concentrations was the population of cells in necrosis significant.

[3] = tested on: human melanoma SKMEL28 cells; test: MTS cell viability assay, SKMEL28; settings: Homo sapiens; for IC50: SK-MEL-28, 72 h; for IC90: SK-MEL-28, Table 2
Procedure, shortened: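 SKMEL28 melanoma cells in DMEM with 10% heat-inactivated FBS were seeded at 1-2×10^4 cells/mL and exposed to withanolides for 72 h. Viability was measured by MTS reagent, incubated 3 h at 37 °C, with formazan absorbance read at 490 nm.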

UMSCC-2 HNSCC cells = test: Annexin V/PI staining and flow cytometry, UMSCC-2
Procedure: In similar analysis with X003, 50% of UMSCC-2 HNSCC cells underwent apoptosis (early and late) at 1 μM, while 90% of cells underwent apoptosis at 3 μM. Apoptosis with 1 μM X003 was confirmed with PARP cleavage and caspase 3 activation in NCI-H727 cells.

SUP-B15 cells [4] = test: Cell cycle analysis by PI flow cytometry, SUP-B15
Procedure: as §1

[5] = tested on: HSF1, Hsp70 and Hsp40 mRNA; test: HSF1, Hsp70 and Hsp40 mRNA levels; settings: Control 1.0
Procedure: Levels of HSF1, Hsp70 and Hsp40 mRNA were also determined in response to treatment with SX002 or X003 for 8 or 16 hours.

melanoma cells B16F10 = test: MTS cell viability assay, B16F10; settings: Mus musculus; for IC50: B16-F10, Table 1, 72-hour treatment; for IC90: B16-F10, Table 2
Procedure, shortened: as §2

[6] = tested on: DRO81-1 medullary thyroid cancer cells; test: MTS cell viability assay, DRO81-1; settings: Table 1; DRO81-1; 72-hour treatment; read-out: IC50
Procedure: (§3) Human carcinoid cells, NCI-H727 (ATCC, Manassas, Va.), were cultured under standard conditions. Squamous cell carcinoma of head and neck cells, MDA1986 (Myers, et al. (2002) Clin. Cancer Res. 8:293) and JMAR (Swan, et al. (2003) Oral Oncol. 39:648-55); and melanoma cells lines B16F10 (ATCC, Manassas, Va.) and SKMEL28 (CLS, Eppelheim, Germany) were cultured in DMEM medium supplemented with 10% heat-inactivated fetal bovine serum (Sigma-Aldrich, St. Louis, Mo.), 1×MEM-essential amino acid, 1×MEM vitamin, and penicillin/streptomycin (Sigma-Aldrich, St. Louis, Mo.) in a humid environment of 5% CO2 at 37° C. Activity of withanolides against DRO81-1 and TT medullary thyroid cancer cells was also determined.
(§4) Cells were cultured in 96 well plates at a concentration of 1-2×10^4 cells/mL. Cell viability was assessed with the nonradioactive cell proliferation MTS assay using Cell Titer 96AQUEOUS One Solution Reagent (PROMEGA, Madison, Wis.), according to the manufacturer's instruction. After a 72-hour treatment, 20 μL of Cell Titer 96AQUEOUS One Solution Reagent were added to each well and incubated for 3 hours at 37° C. 5% CO2, and formazan absorbance was measured at 490 nm.

[7] = tested on: human carcinoid cells NCI-H727; test: MTS cell viability assay, NCI-H727; settings: Table 1, NCI-H727, 72-hour treatment, read-out: IC50
Procedure: as §3, §4

MRC-5 = test: MTS cell viability assay, MRC-5; settings: Homo sapiens, MRC5, Table 1, 72-hour treatment
[8] = tested on: squamous cell carcinoma of head and neck cells JMAR; test: MTS cell viability assay, JMAR; settings: for IC50: Table 1, 72-hour treatment; for IC90: Table 2
Procedure, shortened: as §2

Mia PaCa-2 = test: Pancreatic cancer cell viability, Mia PaCa-2; settings: Homo sapiens, MIA PaCa2, read-out: IC50
Procedure: (§5) The activity of the withanolides of this invention were tested in pancreatic cancer cells. […] Moreover, IC50 values were determined for these compounds (Table 14).

HS766T = test: Pancreatic cancer cell viability, HS766T; settings: read-out: IC50
Procedure: as §5

SUP-B15 cells [9] = test: Trypan blue exclusion assay, SUP-B15; settings: 5×, 2×, 1×, 0.5×IC50
Procedure: as §1, with “Syngery” left out

ER+ MCF-7 cells = test: Cell cycle analysis, MCF-7; settings: 1-2 μM; 24-hour treatment
BT20 cells = test: Clonogenic assay, BT20; settings: 1-2 μM; treated 24 hours, cultured two weeks
[10] = Table 3, treated for 72 hours, NA = no activity

Structure (SMILES): CC(=O)OCC1=C(C)C[C@H]([C@@H](C)C2CC[C@H]3[C@@H]4C[C@H]5O[C@]56[C@@H](OC(C)=O)C=CC(=O)[C@]6(COC(C)=O)[C@H]4CC[C@]23C)OC1=O (stereo partly shown) [Compound X003, 4,19,27-triacetyl X001]
- IC50 (SUP-B15 Ph+ ALL cells): 48 nM
- Fold Difference (SUP-B15 Ph+ ALL cells; MRC-5 vs SUP-B15 IC50): 31X
- IC50 (normal MRC-5 fibroblasts): 1500 nM
- combination index (CI) with imatinib (SUP-B15 Ph+ALL cells; 0.25×-1×IC50 of each drug): 0.136
- synergy with imatinib (SUP-B15 Ph+ALL cells): showed synergy at all concentrations tested
- IC50 [1]: 910 nM
- induction of apoptosis (SUP-B15 cells [2]): almost all cells were in either late or early apoptosis
- IC50 ([3]; Table 1, 72-hour treatment): 540 nM
- IC50 [3, 10]: 221 nM
- IC90 [3]: 360 nM
- cells undergoing apoptosis (early and late) (UMSCC-2 HNSCC cells; 1 μM, UMSCC-2): 50%
- cells undergoing apoptosis (UMSCC-2 HNSCC cells; 3 μM, UMSCC-2): 90%
- Cell Cycle (%) G0/G1 (SUP-B15 cells [4]; 15 nM): 57.4%
- Cell Cycle (%) G2/M (SUP-B15 cells [4]; 15 nM): 20.7%
- Cell Cycle (%) S (SUP-B15 cells [4]; 15 nM): 21.9%
- Cell Cycle (%) G0/G1 (SUP-B15 cells [4]; 30 nM): 66.4%
- Cell Cycle (%) G2/M (SUP-B15 cells [4]; 30 nM): 24%
- Cell Cycle (%) S (SUP-B15 cells [4]; 30 nM): 9.5%
- Cell Cycle (%) G0/G1 (SUP-B15 cells [4]; 60 nM): 62.5%
- Cell Cycle (%) G2/M (SUP-B15 cells [4]; 60 nM): 22.2%
- Cell Cycle (%) S (SUP-B15 cells [4]; 60 nM): 15.3%
- Cell Cycle (%) G0/G1 (SUP-B15 cells [4]; 120 nM): 52.6%
- Cell Cycle (%) G2/M (SUP-B15 cells [4]; 120 nM): 30%
- Cell Cycle (%) S (SUP-B15 cells [4]; 120 nM): 17.4%
- HSF1 mRNA level ([5]; 8 hours): 1.2
- HSP40 mRNA level ([5]; 8 hours): 8.3
- HSP70 mRNA level ([5]; 8 hours): 30.8
- HSF1 mRNA level ([5]; 16 hours): 1.1
- HSP40 mRNA level ([5]; 16 hours): 14.2
- HSP70 mRNA level ([5]; 16 hours): 183.1
- IC50 (melanoma cells B16F10): 67 nM
- IC90 (melanoma cells B16F10): 330 nM
- IC50 [6]: 340 nM
- IC50 [7]: 320 nM
- IC50 (MRC-5): 580 nM
- IC50 [8]: 160 nM
- IC90 [8]: 1300 nM
- IC50 (Mia PaCa-2): 350 nM
- IC50 (HS766T): 400 nM
- cell death at 24 hours, trypan blue exclusion (SUP-B15 cells [9]): significant cell death at 24 hours at IC50 values

Structure (SMILES): CC1=C(CO)C(=O)O[C@@H]([C@@H](C)C2CC[C@H]3[C@@H]4C[C@H]5O[C@]56[C@@H](O)C=CC(=O)[C@]6(CO)[C@H]4CC[C@]23C)C1 (stereo partly shown) [Compound X001]
- IC50 (SUP-B15 Ph+ ALL cells): 350 nM
- IC50 (normal MRC-5 fibroblasts): 8200 nM
- synergy with imatinib (SUP-B15 Ph+ALL cells): showed synergy at all concentrations tested
- cell cycle effect (ER+ MCF-7 cells): G2/M cell cycle arrest
- IC50 [1]: 3340 nM
- induction of apoptosis (SUP-B15 cells [2]): almost all cells were in either late or early apoptosis
- IC50 ([3]; Table 1, 72-hour treatment): 5060 nM
- IC50 [3, 10]: 4710 nM
- IC90 [3]: 2140 nM
- cells undergoing apoptosis (early and late) (UMSCC-2 HNSCC cells; 5 μM, 24-hour exposure, HNSCC cells): 18%
- Cell Cycle (%) G0/G1 (SUP-B15 cells [4]; 200 nM, 48 hour treatment): 53.1%
- Cell Cycle (%) G2/M (SUP-B15 cells [4]; 200 nM, 48 hour treatment): 26.4%
- Cell Cycle (%) S (SUP-B15 cells [4]; 200 nM, 48 hour treatment): 19.5%
- Cell Cycle (%) G0/G1 (SUP-B15 cells [4]; 400 nM, 48 hour treatment): 54.6%
- Cell Cycle (%) G2/M (SUP-B15 cells [4]; 400 nM, 48 hour treatment): 27.1%
- Cell Cycle (%) S (SUP-B15 cells [4]; 400 nM, 48 hour treatment): 18.3%
- Cell Cycle (%) G0/G1 (SUP-B15 cells [4]; 800 nM, 48 hour treatment): 47.5%
- Cell Cycle (%) G2/M (SUP-B15 cells [4]; 800 nM, 48 hour treatment): 42.2%
- Cell Cycle (%) S (SUP-B15 cells [4]; 800 nM, 48 hour treatment): 10.3%
- Cell Cycle (%) G0/G1 (SUP-B15 cells [4]; 1600 nM, 48 hour treatment): 39.9%
- Cell Cycle (%) G2/M (SUP-B15 cells [4]; 1600 nM, 48 hour treatment): 44.5%
- Cell Cycle (%) S (SUP-B15 cells [4]; 1600 nM, 48 hour treatment): 15.7%
- Cell Cycle (%) G0/G1 (SUP-B15 cells [4]; 3200 nM, 48 hour treatment): 49.9%
- Cell Cycle (%) G2/M (SUP-B15 cells [4]; 3200 nM, 48 hour treatment): 31.5%
- Cell Cycle (%) S (SUP-B15 cells [4]; 3200 nM, 48 hour treatment): 18.6%
- IC50 (melanoma cells B16F10): 920 nM
- IC90 (melanoma cells B16F10): 2640 nM
- IC50 [6]: 2290 nM
- IC50 [7]: 1680 nM
- IC50 (MRC-5): 12700 nM
- IC50 [8]: 5320 nM
- IC90 [8]: 4900 nM
- IC50 (Mia PaCa-2): 800 nM
- IC50 (HS766T): 1300 nM
- cell death at 24 hours, trypan blue exclusion (SUP-B15 cells [9]): caused death at 24 hours with 2× and 5×IC50 values
- colony formation (BT20 cells): not as potent
